These results are taken from US9688630B2, “3,3′-disubstituted indolines as inhibitors of cholesterol ester transfer protein” (Merck Sharp & Dohme Corp., priority 2013, dated 2017).

The conditions of data set [1]: Phase III outcomes trial, cited from earlier work.
For data set [2] the following is noted: torcetrapib and atorvastatin concomitantly, compared with atorvastatin alone; cited from earlier work.
For data set [3] the following is noted: cited from earlier work.
Data set [4] has as its target T1, endogenous CETP from human serum (Homo sapiens, UniProt P11597).
T1 construct: yielding a concentration of approximately 15 nM endogenous CETP in the assay; from tissue; host or cells: human serum
T1 sequence (P11597 18-493): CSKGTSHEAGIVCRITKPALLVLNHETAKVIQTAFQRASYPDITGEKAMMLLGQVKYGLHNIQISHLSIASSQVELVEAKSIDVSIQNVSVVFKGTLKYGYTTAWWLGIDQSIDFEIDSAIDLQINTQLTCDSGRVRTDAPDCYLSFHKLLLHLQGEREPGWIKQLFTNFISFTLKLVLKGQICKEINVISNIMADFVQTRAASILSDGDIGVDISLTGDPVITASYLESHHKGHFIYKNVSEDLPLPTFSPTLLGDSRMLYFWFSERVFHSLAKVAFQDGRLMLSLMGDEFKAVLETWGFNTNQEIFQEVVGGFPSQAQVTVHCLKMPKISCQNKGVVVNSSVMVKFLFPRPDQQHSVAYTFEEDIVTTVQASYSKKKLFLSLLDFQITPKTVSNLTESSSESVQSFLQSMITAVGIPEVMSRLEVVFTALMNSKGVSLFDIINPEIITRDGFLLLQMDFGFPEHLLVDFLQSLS
In words: RTA assay using endogenous CETP from serum (95% RTA). In kind it is biochemical. The note with it: 95% human serum. The protocol: (§1) In Vitro Radioactive Assays of CETP-Catalyzed CE and TG Transfer (RTA Assay)
(§2) Reagents and sources are: [3H] cholesteryl oleate (GE #TRK.886), [3H] Triolein (Perkin-Elmer NET-431), Butylated hydroxyl toluene (Aldrich, #D4740-4), DOPC (Sigma, #P6354), Sodium Bromide (Fisher scientific #S255-500), PEG 8000 (Fisher, #BP233-1), and human HDL (Intracel Corp #RP-036).
(§3) An in vitro assay for determining IC50's to identify compounds that inhibit CETP transfer activity is performed based on a modification of a published method (Morton and Zilversmit, (1981) A plasma inhibitor of triglyceride and cholesteryl ester transfer activities, J. Biol. Chem. 256(23), 11992-11995). The ability of inhibitors to alter CETP activity is performed using two different assays: one using recombinant CETP and one using an endogenous plasma source of CETP. Both assays measure the transfer of [3H] cholesteryl oleate or [3H] triolein from exogenous LDL to HDL.
(§4) Radiolabeled donor particles are generated by first combining 100 μl of 200 μM butylated hydroxyl toluene in CHCl3, 216 μL of 21.57 mM DOPC in EtOH, and either 500 μCi [3H]-triolein (Perkin Elmer #NET-431) or 500 μCi [3H]-cholesteryl oleate (GE #TRK886) in a glass tube. Reagents are mixed, dried under nitrogen, and then resuspended in 2 mL of 50 mM Tris, 27 μM EDTA at pH 7.4. After a brief vortex, the solution is sonicated until clear and mixed with 20 mL of fresh human serum. The mixture is incubated overnight at 37° C. The [3H] labeled LDL substrate is separated at 1.063 g/ml density by sequential ultracentrifugal flotation in NaBr according to the method of Havel, Eder, et al., 1955, and Chapman, Goldstein, et al., 1981. Once isolated the particles are dialyzed 3× in CETP buffer (50 mM Tris, pH 7.4, 100 mM NaCl, 1 mM EDTA). Human HDL is purchased from Intracel and used as the acceptor particles.
(§5) Transfer assays are performed in a 96-well v-bottom polypropylene plate. For the RTA using recombinant CETP (2% RTA), an assay cocktail is prepared with the final concentrations 128 μg/mL HDL, 20 nM rCETP, 2% human serum, and 1×CETP buffer. 1 μL of each test compound diluted in DMSO is added to 47 μL of assay cocktail per well and incubated at 37° C. for 1 hour. To initiate the transfer reaction, 2 μL radiolabeled LDL is added. After an additional 60 min of incubation at 37° C., the transfer action is terminated by precipitation of LDL with an equal volume of 20% W/V PEG 8000. The plates are centrifuged at 2000 rpm for 30 minutes at 4° C. A 40 μL aliquot of the HDL-containing supernatant is transferred to a Packard Optiplate™ with 200 μL of MicroScint™ 20. After mixing, plates are counted by liquid scintillation. Counts present in the supernatant for blanks (wells containing only HDL acceptor, CETP buffer and DMSO) are subtracted from those containing test compounds and used to correct for non-specific transfer.
For the transfer assay using endogenous CETP from serum (95% RTA), the same procedure is used except that human serum is added such that a final concentration of serum of 95% of the total assay volume is achieved, yielding a concentration of approximately 15 nM endogenous CETP in the assay. This is then combined with HDL and CETP buffer and the reaction proceeds as above and is terminated as described.
(§6) Comparison of the counts of samples with inhibitors to an uninhibited (DMSO only) positive control yield a percent inhibition. A plot of percent inhibition vs. log of inhibitor concentration, fit to a Sigmoidal 4 parameter equation is used to calculate IC50.

In another data set the target is T2, recombinant CETP (Homo sapiens, UniProt P11597).
T2 sequence (P11597 18-493): T1 sequence (P11597 18-493)
In words: RTA assay using recombinant CETP (2% RTA). The format is biochemical. The note with it: 2% human serum. The protocol:
as §1, §2, §3, §4, §5, §6

[5] abbreviates: patients on baseline statin therapy, compared with patients treated with just a statin.

With `CCC(CC)CC1(C(=O)Nc2ccccc2SC(=O)C(C)C)CCCCC1` [dalcetrapib], the “clinical benefit (interim data)” value in data set [1] (terminated early) was “did not show a clinical benefit”. The safety issues result in data set [1] is “no safety issues detected”.
In the case of `CCOC(=O)N1c2ccc(C(F)(F)F)cc2[C@@H](N(Cc2cc(C(F)(F)F)cc(C(F)(F)F)c2)C(=O)OC)C[C@H]1CC` [torcetrapib], the incidence of mortality entry in data set [2] is “higher incidence of mortality”.
`COc1cc(F)c(C(C)C)cc1-c1ccc(C(F)(F)F)cc1CN1C(=O)O[C@H](c2cc(C(F)(F)F)cc(C(F)(F)F)c2)[C@@H]1C` [anacetrapib]: in data set [3] (setting [5]), the “decrease of LDL-C” value is given as 40% and the “increase of HDL-C” value is on record as 138%. Moreover, the increase in mortality result in data set [3] (patients treated with anacetrapib, DEFINE trial) was “unlikely”.
In general, IC50 refers to the concentration that gives 50% inhibition. Turning to `O[C@H](CN1CC(Cc2cccc(N3CC4(COC4)C3)c2)(c2cccc(OC(F)(F)F)c2)c2ccccc21)C(F)(F)F` (some centres unmarked) [Example 55], the IC50 in data set [4] came out at 533 nM; at recombinant CETP it was 98 nM.
For the compound `COC(=O)c1cccc(CC2(c3cccc(OC(F)(F)F)c3)CN(C[C@@H](O)C(F)(F)F)c3ccccc32)c1` (stereo partly drawn) [Example 60, Methyl 3-((1-((R)-3,3,3-trifluoro-2-hydroxypropyl)-3-(3-(trifluoromethoxy)phenyl)indolin-3-yl)methyl)benzoate], the IC50 in data set [4] was 937 nM; on recombinant CETP it was 668 nM.
The matching figures for `O[C@H](CN1CC(Cc2cccc(N3CC(F)C3)c2)(c2cccc(OC(F)(F)F)c2)c2ccccc21)C(F)(F)F` (some centres unmarked) [Example 52]: 5840 nM and 447 nM.
The matching figures for `O[C@H](CN1CC(Cc2cccc(OC(F)(F)F)c2)(c2cccc(Cl)c2)c2ccccc21)C(F)(F)F` (mixture of isomers) [Example 4, (2R)-3-(3-(3-chlorophenyl)-3-(3-(trifluoromethoxy)benzyl)indolin-1-yl)-1,1,1-trifluoropropan-2-ol]: 1380 nM and 466 nM.
The matching figures for `C[C@H]1CN(c2cccc(CC3(c4cccc(OC(F)(F)F)c4)CN(C[C@@H](O)C(F)(F)F)c4ccccc43)c2)CCO1` (some centres unmarked) [Example 50]: 4930 nM and 474 nM.
As for `Cc1cccc2c1N(C[C@@H](O)C(F)(F)F)CC2(Cc1cccc(OC(F)(F)F)c1)c1cccc(OC(F)(F)F)c1` (some centres unmarked) [Example 11], the IC50 came to 491 nM in data set [4] and 155 nM on recombinant CETP.
The matching figures for `CO[C@H]1CCN(c2cccc(C3(Cc4cccc(OC(F)(F)F)c4)CN(C[C@@H](O)C(F)(F)F)c4ccccc43)c2)C1` (some centres unmarked) [Example 37]: 395 nM and 77 nM.
Regarding `CCOc1cc(C2(Cc3cccc(OC(F)(F)F)c3)CN(C[C@@H](O)C(F)(F)F)c3ccccc32)ccn1` (some centres unmarked) [Example 21], the values for the IC50 (in data set [4]; on recombinant CETP) were 283 nM and 60 nM, respectively.
The matching figures for `O[C@H](CN1CC(Cc2cccc(-c3cccc(OC(F)(F)F)c3)c2)(c2cccc(OC(F)(F)F)c2)c2ccccc21)C(F)(F)F` (stereo partly drawn) [Example 47, (2R)-1,1,1-trifluoro-3-(3-((3′-(trifluoromethoxy)-[1,1′-biphenyl]-3-yl)methyl)-3-(3-(trifluoromethoxy)phenyl)indolin-1-yl)propan-2-ol]: 2880 nM and 720 nM.
For `COc1cccc(-c2cccc(C3(Cc4cccc(OC(F)(F)F)c4)CN(C[C@@H](O)C(F)(F)F)c4ccccc43)c2)c1` (mixture of isomers) [Example 25, (2R)-1,1,1-trifluoro-3-(3-(3′-methoxy-[1,1′-biphenyl]-3-yl)-3-(3-(trifluoromethoxy)benzyl)indolin-1-yl)propan-2-ol] the same measures were 3130 nM and 1470 nM.
The matching figures for `O[C@H](CN1CC(Cc2cccc(OC(F)(F)F)c2)(c2cccc(N3CC(F)C3)c2)c2ccccc21)C(F)(F)F` (some centres unmarked) [Example 34]: 319 nM and 59 nM.
Turning to `O[C@H](CN1CC(Cc2cccc(N3CCC(F)(F)C3)c2)(c2cccc(OC(F)(F)F)c2)c2ccccc21)C(F)(F)F` (some centres unmarked) [Example 54], the concentration for half-maximal inhibition (IC50) stood at 3650 nM in data set [4] and 510 nM at recombinant CETP.
`CC(C)Oc1cc(C2(Cc3cccc(OC(F)(F)F)c3)CN(C[C@@H](O)C(F)(F)F)c3ccccc32)ccn1` (some centres unmarked) [Example 22]: the figures for the IC50 (in data set [4]; at recombinant CETP) were 101 nM and 43 nM, respectively.
